Reference: PubChem BioAssay (NCI)
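Test compounds were applied to cells in 96-well plates for 48 hours at 5 doses. At the GI50, growth is halved. Definition used: TGI = concentration required for complete inhibition of growth.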

How the values were obtained:
Experiment in all cases: inhibition of tumour cell growth, NCI panel, 48 h
OVCAR-8 ovarian = system: OVCAR-8 ovarian
SNB-19 CNS = system: SNB-19 CNS
HCT-15 colon = system: HCT-15 colon
SF-268 CNS = system: SF-268 CNS
UACC-257 melanoma = system: UACC-257 melanoma
CAKI-1 renal = system: CAKI-1 renal
A498 renal = system: A498 renal
CCRF-CEM leukemia = system: CCRF-CEM leukemia
HCT-116 colon = system: HCT-116 colon
HOP-92 NSCLC = system: HOP-92 NSCLC

Compound	TGI (OVCAR-8 ovarian) [µM]	TGI (SNB-19 CNS) [µM]	TGI (HCT-15 colon) [µM]	TGI (SF-268 CNS) [µM]	TGI (UACC-257 melanoma) [µM]	TGI (CAKI-1 renal) [µM]	TGI (A498 renal) [µM]	TGI (CCRF-CEM leukemia) [µM]	TGI (HCT-116 colon) [µM]	TGI (HOP-92 NSCLC) [µM]	GI50 (OVCAR-8 ovarian) [µM]	GI50 (A498 renal) [µM]	GI50 (SNB-19 CNS) [µM]	GI50 (HCT-116 colon) [µM]	GI50 (HCT-15 colon) [µM]	GI50 (SF-268 CNS) [µM]	GI50 (HOP-92 NSCLC) [µM]	GI50 (UACC-257 melanoma) [µM]	GI50 (CAKI-1 renal) [µM]
CCCCCCCCCCCCCCCCCC(=O)OCC1OC(OC)C(NC(=O)N(CCCl)N=O)C(O)C1O (stereo not given)	> 100	> 100	> 100	26.7	39.4	> 100													
CCOC(=O)C12CC(C)=C(C)CC1CCCc1ccccc12 (stereo not given)	> 100	83	59.8	> 100	46.2	> 100	62.7	41.6	34.3	38.8									
Cc1cc2c(cc1Cl)SC(c1ccccc1O)NS2(=O)=O (stereo not given)	> 100	> 100	> 100	> 100	> 100	> 100	> 100	26.3	> 100	> 100									
Cn1c(=O)ccc2c(=O)c3ccccc3oc21	> 100	> 100	> 100	> 100		> 100	> 100	> 100	> 100	> 100									
O=C([CH-]C(=O)c1ccccc1)c1ccccc1.O=C([CH-]C(=O)c1ccccc1)c1ccccc1.O=C([CH-]C(=O)c1ccccc1)c1ccccc1.[Cl-].[Hf+4]	77.7	> 100	> 100	> 100	69.5	52.4	63		26.1	36.1	11.5	18.6	14.1	7.33	12.5	26.4	10.9	22.2	14.2
O=C(CSSCC(=O)OCCS(=O)(=O)Nc1ccc(Br)cc1)OCCS(=O)(=O)Nc1ccc(Br)cc1	45.2	> 100	48.5	63.2	44.6	68.4	39.8	> 100		51.5									
Cc1cn(Cc2cn(CC3OC(n4cc(C)c(=O)[nH]c4=O)CC3O)nn2)c(=O)[nH]c1=O (stereo not given)	> 100	> 100	> 100	> 100	> 100	> 100	> 100	> 100	> 100										
N=C(N)c1ccc(N=Nc2c(O)ccc3cc4c(N=Nc5ccc(C(=N)N)cc5)c(O)ccc4cc23)cc1	> 100	> 100	> 100	> 100	> 100	> 100		> 100	> 100	> 100									
